From BigSolDB 2.1

Settings: 298.2 K

O=C(c1ccccc1)c1ccc(O)cc1O
Settings | solubility (mole fraction)
in 2-ethoxyethanol | 0.0308
in 2-isopropoxyethanol | 0.0333
in chlorobenzene | 0.0044
in cyclohexane | 5.07e-05
in diisopropyl ether | 0.00744
in ethylbenzene | 0.00408
in isooctane | 3.31e-05
in m-xylene | 0.00415
in methylcyclohexane | 6.92e-05
in n-butanol | 0.0109
in n-heptane | 3.82e-05
in n-heptanol | 0.018
in n-hexane | 3.26e-05
in n-hexanol | 0.0161
in n-octane | 4.43e-05
in n-octanol | 0.0183
in n-pentanol | 0.0125
in o-xylene | 0.00429
in p-xylene | 0.00448
in sec-butanol | 0.0103
in toluene | 0.00364
